How the values were obtained:
Test in all cases: relative viability (nuclei count vs DMSO), 5 days (fraction); higher = more cells survive
[1] = compound: Cc1nc(C(=O)NCC(=O)O)c(O)c2ccc(Oc3ccccc3)cc12 [FG-4592] + Nc1nc2[nH]cc(CCc3ccc(C(=O)N[C@@H](CCC(=O)O)C(=O)O)cc3)c2c(=O)[nH]1 [Pemetrexed] (partner 0.2 µM)
Outline: (§1)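 After 5 days of treatment, lung cancer cells in 1536-well plates were fixed and stained in a single step (final 0.05% Triton X-100, 1% formaldehyde, 1 ug/ml Hoechst) and their nuclei counted on 4× images. Treatment had been applied by pin tool the day after seeding as one drug alone or as a fixed anchor-drug dose with five library-drug doses (not always all listed) in √10 steps. Relative viability is the nuclei count of treated wells divided by that of vehicle wells, and values are medians of duplicate plates.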

[2] = compound: Cc1nc(C(=O)NCC(=O)O)c(O)c2ccc(Oc3ccccc3)cc12 [FG-4592] + COc1cccc2cc(-c3nc([C@H]4CC[C@H](C(=O)O)CC4)n4ncnc(N)c34)[nH]c12 [OSI-027] (partner 0.5 µM)
Outline: as §1

[3] = compound: Cc1nc(C(=O)NCC(=O)O)c(O)c2ccc(Oc3ccccc3)cc12 [FG-4592] + CS(=O)(=O)CCNCc1ccc(-c2ccc3ncnc(Nc4ccc(OCc5cccc(F)c5)c(Cl)c4)c3c2)o1 [Lapatinib] (partner 2 µM)
Outline: as §1

[4] = compound: CC1=CC(=C(N1C2=CC=C(C=C2)Cl)C)C(=O)CN3CCCCC3 [IU1-47] + COc1cc2c(Oc3ccc(NC(=O)C4(C(=O)Nc5ccc(F)cc5)CC4)cc3F)ccnc2cc1OCCCN1CCOCC1 [Foretinib] (partner 0.25 µM)
Outline: as §1

With EMC-BAC-2 the relative viability ([1]; first compound 0.08 µM) was 0.407, the relative viability ([1]; first compound 0.253 µM) was 0.407 and the relative viability ([1]; first compound 0.8 µM) was 0.447. For the same cell line, the relative viability ([1]; first compound 2.53 µM) was 0.434, the relative viability ([1]; first compound 8 µM) was 0.423 and the relative viability ([2]; first compound 0.08 µM) was 0.338. The relative viability ([2]; first compound 0.253 µM) was 0.407, the relative viability ([2]; first compound 0.8 µM) was 0.339 and the relative viability ([2]; first compound 2.53 µM) was 0.333. The relative viability ([2]; first compound 8 µM) was 0.344, the relative viability ([3]; first compound 0.08 µM) was 0.853 and the relative viability ([3]; first compound 0.253 µM) was 0.866. The relative viability ([3]; first compound 0.8 µM) was 0.808, the relative viability ([3]; first compound 2.53 µM) was 0.731 and the relative viability ([3]; first compound 8 µM) was 0.842. It also gave a relative viability ([4]; first compound 0.08 µM) of 1.07, a relative viability ([4]; first compound 0.253 µM) of 1.11 and a relative viability ([4]; first compound 0.8 µM) of 0.984. The relative viability ([4]; first compound 2.53 µM) was 1.02 and the relative viability ([4]; first compound 8 µM) was 1.05.
EPLC-272H gave a relative viability ([1]; first compound 0.08 µM) of 0.321, a relative viability ([1]; first compound 0.253 µM) of 0.223 and a relative viability ([1]; first compound 0.8 µM) of 0.319. For the same cell line, the relative viability ([1]; first compound 2.53 µM) was 0.353, the relative viability ([1]; first compound 8 µM) was 0.377 and the relative viability ([2]; first compound 0.08 µM) was 0.348. The relative viability ([2]; first compound 0.253 µM) was 0.206, the relative viability ([2]; first compound 0.8 µM) was 0.285 and the relative viability ([2]; first compound 2.53 µM) was 0.29. For the same cell line, the relative viability ([2]; first compound 8 µM) was 0.232, the relative viability ([3]; first compound 0.08 µM) was 1.12 and the relative viability ([3]; first compound 0.253 µM) was 0.795. The relative viability ([3]; first compound 0.8 µM) was 0.586, the relative viability ([3]; first compound 2.53 µM) was 0.962 and the relative viability ([3]; first compound 8 µM) was 0.916. It also gave a relative viability ([4]; first compound 0.08 µM) of 0.659, a relative viability ([4]; first compound 0.253 µM) of 0.775 and a relative viability ([4]; first compound 0.8 µM) of 0.764. It also gave a relative viability ([4]; first compound 8 µM) of 0.606.
H3255 showed a relative viability ([1]; first compound 0.08 µM) of 0.586, a relative viability ([1]; first compound 0.253 µM) of 0.538 and a relative viability ([1]; first compound 0.8 µM) of 0.567. It also gave a relative viability ([1]; first compound 2.53 µM) of 0.573, a relative viability ([1]; first compound 8 µM) of 0.56 and a relative viability ([2]; first compound 0.08 µM) of 0.573. The relative viability ([2]; first compound 0.253 µM) was 0.576, the relative viability ([2]; first compound 0.8 µM) was 0.626 and the relative viability ([2]; first compound 2.53 µM) was 0.617. It also gave a relative viability ([2]; first compound 8 µM) of 0.62, a relative viability ([3]; first compound 0.08 µM) of 0.275 and a relative viability ([3]; first compound 0.253 µM) of 0.235. The relative viability ([3]; first compound 0.8 µM) was 0.271, the relative viability ([3]; first compound 2.53 µM) was 0.257 and the relative viability ([3]; first compound 8 µM) was 0.26. The relative viability ([4]; first compound 0.08 µM) was 0.858, the relative viability ([4]; first compound 0.253 µM) was 0.958 and the relative viability ([4]; first compound 0.8 µM) was 1.44. The relative viability ([4]; first compound 2.53 µM) was 0.368 and the relative viability ([4]; first compound 8 µM) was 0.832.
HARA showed a relative viability ([1]; first compound 2.53 µM) of 0.251, a relative viability ([1]; first compound 8 µM) of 0.24 and a relative viability ([2]; first compound 0.08 µM) of 0.334. For the same cell line, the relative viability ([2]; first compound 0.253 µM) was 0.335, the relative viability ([2]; first compound 0.8 µM) was 0.434 and the relative viability ([2]; first compound 2.53 µM) was 0.392. It also gave a relative viability ([2]; first compound 8 µM) of 0.234, a relative viability ([3]; first compound 0.08 µM) of 0.677 and a relative viability ([3]; first compound 0.253 µM) of 0.719. It also gave a relative viability ([3]; first compound 2.53 µM) of 0.728, a relative viability ([3]; first compound 8 µM) of 0.667 and a relative viability ([4]; first compound 0.08 µM) of 1.02. It also gave a relative viability ([4]; first compound 0.253 µM) of 1.1, a relative viability ([4]; first compound 0.8 µM) of 1.04 and a relative viability ([4]; first compound 8 µM) of 0.742.

— the supplement of paper PMC10307832
